From ChEMBL document CHEMBL5608241, “Discovery of Novel Non-nucleoside DOT1LR231Q Inhibitors with Improved Pharmacokinetic Properties and Anti-lung Cancer Efficacy” (J Med Chem, 2024)

Key:
NCI-H460 [1] = experiment: Antiproliferative activity against human NCI-H460 cells harboring wildtype DOT1L (unknown origin) (1 to 416 residues) assessed as inhibition of cell proliferation incubated for 72 hrs by CCK-8 assay; format: functional, cell-based; conditions: NCI-H460, 72 h
NCI-H460 [2] = experiment: Antiproliferative activity against human NCI-H460 cells harboring DOT1L R231Q mutant (unknown origin) (1 to 416 residues) assessed as inhibition of cell proliferation incubated for 72 hrs by CCK-8 assay; format: functional, cell-based; conditions: NCI-H460, 72 h
NCI-H460 [3] = experiment: Antitumor activity against human NCI-H460 cells harboring DOT1L R231Q OE mutant xenografted in male BALB/c-nu mouse model assessed as tumor growth inhibition at 20 mg/kg, ip administered five times a week for 3 weeks relative to control; format: functional; conditions: NCI-H460, 504 h, read-out: TGI
NCI-H460 [4] = experiment: Antiproliferative activity against human NCI-H460 cells harboring DOT1L R231Q mutant assessed as inhibition of cell proliferation incubated for 72 hrs by CCK-8 assay; format: functional, cell-based; conditions: NCI-H460, 72 h

CC(C)(C)c1ccc(NC(=O)NCCCN(CCC(=O)N2CCSCC2)CC2(O)CCN(c3nc(Cl)nc4[nH]ncc34)C2)cc1 (stereo unspecified)
IC50 (NCI-H460 [1]): 44 µM
IC50 (NCI-H460 [2]): 16.2 µM

CN(CCCNC(=O)Nc1ccc(C(C)(C)C)cc1)CC1CCCN(c2nc(Cl)nc3[nH]cnc23)C1 (stereo unspecified)
IC50 (NCI-H460 [1]): 23.3 µM
IC50 (NCI-H460 [2]): 37.7 µM

CC(C)N(CCCNC(=O)Nc1ccc(C(C)(C)C)cc1)CC1(O)CCN(c2nc(Cl)nc3[nH]ccc23)C1 (stereo unspecified)
IC50 (NCI-H460 [1]): 17.6 µM
IC50 (NCI-H460 [2]): 25.6 µM

CC(C)(C)C(=O)Nc1ccc2nc(CN3CCC(N(CCCN4CCOCC4)C[C@H]4O[C@@H](n5cnc6c(N)ncnc65)[C@H](O)[C@@H]4O)CC3)[nH]c2c1
inhibition in vivo at 20 mg/kg (NCI-H460 [3]): 54.4%
IC50 (NCI-H460 [4]): 6.18 µM

CC(C)N(CCCNC(=O)Nc1ccc(C(C)(C)C)cc1)CC1(O)CCN(c2nc(N)nc3[nH]cnc23)C1 (stereo unspecified)
IC50 (NCI-H460 [1]): 25.6 µM
IC50 (NCI-H460 [2]): 35.7 µM

CC(C)(C)c1ccc(NC(=O)NCCCN(CCC(=O)N2CCOCC2)CC2(O)CCN(c3nc(Cl)nc4[nH]cnc34)C2)cc1 (stereo unspecified)
IC50 (NCI-H460 [1]): 53.9 µM
IC50 (NCI-H460 [2]): 38.4 µM

CC(C)(C)c1ccc(NC(=O)NCCCN(CCCN2CCOCC2)CC2(O)CCN(c3ncnc4[nH]cc(Br)c34)C2)cc1 (stereo unspecified)
IC50 (NCI-H460 [1]): 45.6 µM
IC50 (NCI-H460 [2]): 36.5 µM

CC(C)(C)c1ccc(NC(=O)NCCCN(CCCN2CCOCC2)CC2(O)CCN(c3nc(Cl)nc4[nH]cnc34)C2)cc1 (stereo unspecified)
IC50 (NCI-H460 [1]): 31.4 µM
IC50 (NCI-H460 [2]): 9.59 µM

CC(C)N(CCCNC(=O)Nc1ccc(C(C)(C)C)cc1)C[C@H]1O[C@@H](n2cc(Br)c3c(N)ncnc32)[C@H](O)[C@@H]1O
IC50 (NCI-H460 [1]): 8.83 µM
IC50 (NCI-H460 [2]): 36 µM

CC(C)N(CCCNC(=O)Nc1ccc(C(C)(C)C)cc1)CC1CCCN(c2nc(Cl)nc3[nH]cnc23)C1 (stereo unspecified)
IC50 (NCI-H460 [1]): 21.8 µM
IC50 (NCI-H460 [2]): 38.7 µM

CN(CCCNC(=O)Nc1ccc(C(C)(C)C)cc1)CC1CCCN(C(=O)c2cnccn2)C1 (stereo unspecified)
IC50 (NCI-H460 [1]): > 100 µM
IC50 (NCI-H460 [2]): > 100 µM

CC(C)(C)c1ccc(NC(=O)NCCCN(CCCN2CCOCC2)CC2(O)CCN(c3ncnc4[nH]cnc34)C2)cc1 (stereo unspecified)
IC50 (NCI-H460 [1]): > 100 µM
IC50 (NCI-H460 [2]): 73.1 µM

CN(CCCNC(=O)Nc1ccc(C(C)(C)C)cc1)CC1(O)CCN(c2nc(N)nc3[nH]cnc23)C1 (stereo unspecified)
IC50 (NCI-H460 [1]): 23.8 µM
IC50 (NCI-H460 [2]): 44.9 µM

CC(C)N(CCCNC(=O)Nc1ccc(C(C)(C)C)cc1)CC1CCCN(c2cc(C#N)ccn2)C1 (stereo unspecified)
IC50 (NCI-H460 [1]): > 100 µM
IC50 (NCI-H460 [2]): > 100 µM

CC(C)N(CCCNC(=O)Nc1ccc(C(C)(C)C)cc1)CC1(O)CCN(c2ncnc3[nH]ccc23)C1 (stereo unspecified)
IC50 (NCI-H460 [1]): 54.4 µM
IC50 (NCI-H460 [2]): 83.9 µM

CC(C)(C)C(=O)Nc1ccc2[nH]c(CN3CCC(N(CCCN4CCOCC4)CC4CCCN(c5nc(Cl)nc6[nH]cnc56)C4)CC3)nc2c1 (stereo unspecified)
IC50 (NCI-H460 [1]): > 100 µM
IC50 (NCI-H460 [2]): 48.1 µM

CC(C)(C)C(=O)Nc1ccc2[nH]c(CN3CCC(N(CCCN4CCOCC4)CC4CCCN(c5nc(Cl)nc6[nH]ncc56)C4)CC3)nc2c1 (stereo unspecified)
IC50 (NCI-H460 [1]): > 100 µM
IC50 (NCI-H460 [2]): 52 µM

CC(C)N(CCCNC(=O)Nc1ccc(C(C)(C)C)cc1)CC1(O)CCN(c2ncnc3[nH]cc(Br)c23)C1 (stereo unspecified)
IC50 (NCI-H460 [1]): 35.2 µM
IC50 (NCI-H460 [2]): 45.3 µM

CC(C)(C)c1ccc(NC(=O)NCCCN(CCCN2CCOCC2)CC2(O)CCN(c3nc(N)nc4[nH]cnc34)C2)cc1 (stereo unspecified)
IC50 (NCI-H460 [1]): > 100 µM
IC50 (NCI-H460 [2]): 29.6 µM

CC(C)(C)C(=O)Nc1ccc2[nH]c(CN3CCC(N(CCCN4CCOCC4)CC4CCCN(c5cc(C#N)ccn5)C4)CC3)nc2c1 (stereo unspecified)
IC50 (NCI-H460 [1]): > 100 µM
IC50 (NCI-H460 [2]): 85.5 µM

CC(C)(C)c1ccc(NC(=O)NCCCN(CCC(=O)N2CCSCC2)CC2(O)CCN(c3nc(Cl)nc4[nH]cnc34)C2)cc1 (stereo unspecified)
IC50 (NCI-H460 [1]): 64.5 µM
IC50 (NCI-H460 [2]): 23.2 µM

CC(C)N(CCCNC(=O)Nc1ccc(C(C)(C)C)cc1)CC1CCCN(c2ncnc3[nH]cnc23)C1 (stereo unspecified)
IC50 (NCI-H460 [1]): 64.7 µM
IC50 (NCI-H460 [2]): 66.5 µM

COC(=O)CCN(CCCNC(=O)Nc1ccc(C(C)(C)C)cc1)CC1(O)CCN(c2nc(Cl)nc3[nH]ncc23)C1 (stereo unspecified)
IC50 (NCI-H460 [1]): 61.7 µM
IC50 (NCI-H460 [2]): 28.4 µM

CC(C)(C)C(=O)Nc1ccc2[nH]c(CN3CCC(N(CCCN4CCOCC4)CC4CCCN(c5ncnc6[nH]cnc56)C4)CC3)nc2c1 (stereo unspecified)
IC50 (NCI-H460 [1]): > 100 µM
IC50 (NCI-H460 [2]): 73.8 µM

COC(=O)CCN(CCCNC(=O)Nc1ccc(C(C)(C)C)cc1)CC1(O)CCN(c2ncnc3[nH]cnc23)C1 (stereo unspecified)
IC50 (NCI-H460 [1]): > 100 µM
IC50 (NCI-H460 [2]): > 100 µM

CN(CCCNC(=O)Nc1ccc(C(C)(C)C)cc1)CC1CCCN(c2ncnc3[nH]cnc23)C1 (stereo unspecified)
IC50 (NCI-H460 [1]): 68.6 µM
IC50 (NCI-H460 [2]): 64.3 µM

CC(C)(C)c1ccc(NC(=O)NCCCN(CCO)CC2(O)CCN(c3nc(N)nc4[nH]cnc34)C2)cc1 (stereo unspecified)
IC50 (NCI-H460 [1]): 31.2 µM
IC50 (NCI-H460 [2]): 52.6 µM

CC(C)N(CCCNC(=O)Nc1ccc(C(C)(C)C)cc1)CC1(O)CCN(c2nc(Cl)nc3[nH]ncc23)C1 (stereo unspecified)
IC50 (NCI-H460 [1]): 6.47 µM
IC50 (NCI-H460 [2]): 14.5 µM

CC(C)N(CCCNC(=O)Nc1ccc(C(C)(C)C)cc1)CC1(O)CCN(c2nc(Cl)nc3sccc23)C1 (stereo unspecified)
IC50 (NCI-H460 [1]): 7.56 µM
IC50 (NCI-H460 [2]): 16 µM

CC(C)(C)C(=O)Nc1ccc2[nH]c(CN3CCC(N(CCCN4CCOCC4)CC4CCCN(C(=O)c5cnccn5)C4)CC3)nc2c1 (stereo unspecified)
IC50 (NCI-H460 [1]): > 100 µM
IC50 (NCI-H460 [2]): > 100 µM

CC(C)N(CCCNC(=O)Nc1ccc(C(C)(C)C)cc1)CC1(O)CCN(c2nc(Cl)nc3[nH]cnc23)C1 (stereo unspecified)
IC50 (NCI-H460 [1]): 5.33 µM
IC50 (NCI-H460 [2]): 13.8 µM

CC(C)(C)c1ccc(NC(=O)NCCCN(CCC(=O)N2CCOCC2)CC2(O)CCN(c3ncnc4[nH]cnc34)C2)cc1 (stereo unspecified)
IC50 (NCI-H460 [1]): > 100 µM
IC50 (NCI-H460 [2]): 95.5 µM

CN(CCCNC(=O)Nc1ccc(C(C)(C)C)cc1)CC1(O)CCN(c2nc(Cl)nc3[nH]cnc23)C1 (stereo unspecified)
IC50 (NCI-H460 [1]): 6.46 µM
IC50 (NCI-H460 [2]): 17.6 µM

CN(CCCNC(=O)Nc1ccc(C(C)(C)C)cc1)CC1CCCN(C(=O)c2ccc[nH]c2=O)C1 (stereo unspecified)
IC50 (NCI-H460 [1]): 66.3 µM
IC50 (NCI-H460 [2]): 83.2 µM

CC(C)(C)c1ccc(NC(=O)NCCCN(CCCN2CCOCC2)CC2(O)CCN(c3nc(Cl)nc4[nH]ncc34)C2)cc1 (stereo unspecified)
IC50 (NCI-H460 [1]): 18.9 µM
IC50 (NCI-H460 [2]): 7.15 µM

CN(CCCNC(=O)Nc1ccc(C(C)(C)C)cc1)CC1(O)CCN(c2nc(Cl)nc3ccsc23)C1 (stereo unspecified)
IC50 (NCI-H460 [1]): 27.7 µM
IC50 (NCI-H460 [2]): 50.8 µM

CN(CCCNC(=O)Nc1ccc(C(C)(C)C)cc1)CC1(O)CCN(c2nc(Cl)nc3[nH]ncc23)C1 (stereo unspecified)
IC50 (NCI-H460 [1]): 8.51 µM
IC50 (NCI-H460 [2]): 21.8 µM

CN(CCCNC(=O)Nc1ccc(C(C)(C)C)cc1)CC1CCCN(c2cc(C#N)ccn2)C1 (stereo unspecified)
IC50 (NCI-H460 [1]): > 100 µM
IC50 (NCI-H460 [2]): 91.2 µM

CC(C)(C)c1ccc(NC(=O)NCCCN(CCO)CC2(O)CCN(c3ncnc4[nH]cc(Br)c34)C2)cc1 (stereo unspecified)
IC50 (NCI-H460 [1]): 41.3 µM
IC50 (NCI-H460 [2]): 47.1 µM

CN(CCCNC(=O)Nc1ccc(C(C)(C)C)cc1)CC1(O)CCN(c2ncnc3[nH]cc(Br)c23)C1 (stereo unspecified)
IC50 (NCI-H460 [1]): 38.7 µM
IC50 (NCI-H460 [2]): 40.6 µM

CC(C)(C)c1ccc(NC(=O)NCCCN(CCC(=O)N2CCSCC2)CC2(O)CCN(c3ncnc4[nH]cnc34)C2)cc1 (stereo unspecified)
IC50 (NCI-H460 [1]): > 100 µM
IC50 (NCI-H460 [2]): 89.6 µM

COC(=O)CCN(CCCNC(=O)Nc1ccc(C(C)(C)C)cc1)CC1(O)CCN(c2nc(Cl)nc3[nH]cnc23)C1 (stereo unspecified)
IC50 (NCI-H460 [1]): 72.6 µM
IC50 (NCI-H460 [2]): 30.9 µM

CC(C)N(CCCNC(=O)Nc1ccc(C(C)(C)C)cc1)CC1CCCN(C(=O)c2ccc[nH]c2=O)C1 (stereo unspecified)
IC50 (NCI-H460 [1]): 75.7 µM
IC50 (NCI-H460 [2]): 81.2 µM
